For one data set, the system named is Gli36ΔEGFR-2. Nature of the data set: MTT cytotoxicity, GBM cells. The format is cell-based. Particulars: Homo sapiens, 24 h of treatment, read-out: mean calculated IC50. As to the method: (§1) Gli36ΔEGFR-2 and U87-MG were used as GBM in vitro models. Gli36ΔEGFR [27, 28], carrying the EGFRvIII mutation, was made resistant to TMZ after 1 month of in vitro exposure to 50 µM TMZ [29]. These cells were selected because the TMZ sensitivity was repeatedly tested in vitro and in vivo in orthotopic GBM models. Both Gli36ΔEGFR-2 and U87-MG were maintained in Dulbecco’s Modified Eagle Medium (DMEM) High Glucose w/o sodium pyruvate (ECM0101L, Euroclone, Milan, Italy) supplemented with 10% fetal bovine serum (FBS, ECS0180L, Euroclone, Milan, Italy), 4 mM L-glutamine (ECB3000D, Euroclone, Milan, Italy), and 100 U ml^−1 penicillin/streptomycin (P/S) (ECB3001B, Euroclone, Milan, Italy). Normal human astrocytes (NHAs, CC-2565, Lonza, Basel, Switzerland) were used as healthy astrocytes and maintained in AGM^TM Astrocyte Growth Medium BulletKit^TM (CC-3186, Lonza) as per the manufacturer’s protocol. Human cerebral microvascular endothelial cells (hCMECs), provided by Dr. S. Bourdoulous (Institut Cochin, Inserm, Paris, France), were used as a model of brain endothelial cells and cultured as reported in the literature. […]
(§2) The effect of free or encapsulated Givinostat was assessed by the MTT assay. […] At the designated times, the assay was performed as per the manufacturer’s protocol and absorbance was measured at 570 nm using a microplate reader (SPECTROstar Nano, BMG LABTECH, Ortenberg, Germany). […]

In a further data set the test system is LRP1. Nature of the data set: Immunoblot of receptor level in Gli36ΔEGFR-2. As to conditions: Western blot; Figure 8 legend: LIP-GIV. Format: cell-based, human. As to the method: (§3) Whole cell lysates were obtained by washing cells twice in cold PBS and harvesting in 60 μL of radioimmunoprecipitation assay (RIPA) buffer (cat. no. 89901, ThermoFisher) supplemented with 1% of protease and phosphatase inhibitor cocktail (cat. no. 78446, ThermoFisher). Whole cell lysates were quantified using a BCA Protein Assay Kit (cat. No. 23227, ThermoFisher) and separated by electrophoresis through precast gels (NuPAGE^TM 4–12% Bis-Tris, 1.0 mm, Mini Protein Gel 10 or 15-wells, cat. No. NP0321 and NP0323, ThermoFisher).
(§4) Proteins were transferred to nitrocellulose membranes using iBlot^TM Transfer Stack (cat. No. IB301002, ThermoFisher) and membranes were blocked either in 5% milk or in 5% BSA in TBS with 0.1% Tween-20 (TBST) for 1 h. Membranes were then incubated overnight at 4 °C with the following primary antibodies: Acetyl-α-Tubulin (5335, 1:1000), α-Tubulin (2144, 1:1000), Histone H3 (9715, 1:1000) and β-Tubulin (2146, 1:1000) purchased from CST; β-Actin (MA5-15739, 1:5000), GAPDH (MA1-16757, 1:5000), VLDLR (MA5-24790, 1:1000), ABCA1 (PA1-16789, 1:500), LRP1 (MA1-27198, 1:500), and LDLR (PA5-22976, 1:1000) purchased from ThermoFisher. Membranes were incubated with secondary anti-rabbit antibody (A0545, 1:5000, Merck) or anti-mouse antibody (G21040, 1:20,000, Invitrogen) for 1 h at RT. Bands were detected using Immobilion ECL Ultra Western HRP Substrate (WBULS0100, Merck) under chemiluminescence using an Amersham Imager 600 (Cytiva, Marlborough MA, USA). Quantifications were made using ImageLab Software Version 6.1 (Bio-Rad, www.bio-rad.com).
On the technique in general: A western blot detects proteins with antibodies after separation by electrophoresis.

Another data set deals with LDLR. Put plainly: Immunoblot of receptor level in Gli36ΔEGFR-2. Format: cell-based, human. As to conditions: Western blot; Figure 8 legend: LIP-GIV. As to the method: as §3, §4
Another data set concerns VLDLR. Nature of the data set: Immunoblot of receptor level in Gli36ΔEGFR-2. Particulars: Western blot; Figure 8 legend: LIP-GIV. The format is cell-based, human. As to the method: as §3, §4
Data set [1] can be described thus: Plasma pharmacokinetics after i.v. injection (LC-MS/MS). Format: in vivo. Particulars: Swiss CD1, mouse, iv, mice. As to the method: (§5) Mice were sacrificed at different time points up to 48 h after the injection and blood and brain were harvested. Blood was collected from the cava vein in tubes coated with Li-heparin anticoagulant and centrifuged at +4 °C, 3000 g for 10 min to obtain the plasma. After blood collection, brain was harvested, washed in saline, dried on absorbent paper, weighed, and placed into appropriate tubes. All samples were analyzed for their Givinostat content using the LC-MS/MS method. Stock solution of Givinostat, […]2375 (metabolites), and internal standard ITF2400 were prepared in ACN/water 1:1 at 1 mg/mL. Working solutions were prepared by sequential dilution in water:ACN 8:2. Brains were homogenized in 20 mM ammonium formate buffer (1 g/5 mL). In total, 45 μL of blank plasma or brain homogenates was added to 200 μL of ACN containing ITF2400 at 25 ng/mL and acted as internal standards. Samples were vortexed for 3 min and centrifuged for 10 min at 5 °C at […]. Samples were transferred into a 96-well plate, dried under nitrogen flow, and resuspended in 200 μL 0.1% FA H2O/ACN (75:25). After vortexing, samples were injected into LC-MS/MS. Samples were analyzed on a UPLC Acquity (Waters, Milford, MA, USA) coupled with an API 3200 Triple Quadrupole (ABSciex). Mobile phases were water and ACN with 0.1% FA on a Kinetex 2.6 μm C18 100 A 75 × 3 mm (Phenomenex, Torrance, CA, USA). Analytes were quantified in MRM ESI positive mode. […] Pharmacokinetic parameters were calculated using Excel Add in (PK Solver 2.0, Excel 2007 Microsoft add in). AUCs were calculated using an NCA by the linear trapezoidal rule, and a uniform weight was performed as a first approach. Graphical concentration-time curves were produced after Log transformation. The ke was estimated from the terminal part of the log-concentration-time plot including at least three data points excluding the Cmax.

The next data set deals with ABCA1. Nature of the data set: Immunoblot of ABCA1 level in Gli36ΔEGFR-2. The format is cell-based, human. Particulars: Western blot; Figure 8 legend: LIP-GIV, 24 h. As to the method:
as §3
Proteins were transferred to nitrocellulose membranes using iBlot^TM Transfer Stack (cat. No. IB301002, ThermoFisher) and membranes were blocked either in 5% milk or in 5% BSA in TBS with 0.1% Tween-20 (TBST) for 1 h. […] Bands were detected using Immobilion ECL Ultra Western HRP Substrate (WBULS0100, Merck) under chemiluminescence using an Amersham Imager 600 (Cytiva, Marlborough MA, USA). Quantifications were made using ImageLab Software Version 6.1 (Bio-Rad, www.bio-rad.com).

The nature of data set [2]: Brain penetration after i.v. injection (LC-MS/MS). Format: in vivo, Swiss CD1 mice. As to conditions: mice. As to the method: as §5
Data set [3] in a line: MTT cytotoxicity, healthy astrocytes. As to conditions: human, normal human astrocytes (NHA), doses between 0.1 and 10 μM, read-out: cell viability. Format: cell-based. As to the method: as §1, §2
The next data set deals with T98G. Details: method as in PMID 25053824. Particulars: cited from earlier work.
The subject of the next data set is U87-MG. Details: method as in PMID 25053824. Particulars: cited from earlier work.

With `CCN(CC)Cc1ccc2cc(COC(=O)Nc3ccc(C(=O)NO)cc3)ccc2c1` [Givinostat, [6-diethylaminomethyl) naphtalen-2-yl] methyl N-[4-(hydroxycarbamoyl) phenyl] carbamate], in the data set on Gli36ΔEGFR-2, the IC50 is 0.75 µM. In addition, the LRP1 protein level result with LRP1 is “significantly reduced”. Also, the LDLR protein level entry with LDLR is recorded as “significantly reduced”. In the data set with VLDLR, the VLDLR protein level entry was “significantly reduced”. Besides, the concentration at 5 min in data set [1] (7.5 mg/kg i.v., 5 min, read-out: Givinostat plasma level) came to 1030 ng/mL; in data set [2] (Swiss CD1, mouse, brain, iv, 7.5 mg/kg i.v., 5 min, read-out: Givinostat brain level) it was 102 ng/g. Further, the concentration at 10 min in [1] (7.5 mg/kg i.v., 10 min, read-out: Givinostat plasma level) amounted to 597 ng/mL; in [2] (Swiss CD1, mouse, brain, iv, 7.5 mg/kg i.v., 10 min, read-out: Givinostat brain level), 101 ng/g. In addition, the concentration at 0.25 h turned out to be 431 ng/mL in data set [1] (7.5 mg/kg i.v., 0.25 h, read-out: Givinostat plasma level) and 90 ng/g in [2] (Swiss CD1, mouse, brain, iv, 7.5 mg/kg i.v., 0.25 h, read-out: Givinostat brain level). Further, the concentration at 0.5 h in data set [1] (7.5 mg/kg i.v., 0.5 h, read-out: Givinostat plasma level) was determined as 256 ng/mL; in data set [2] (Swiss CD1, mouse, brain, iv, 7.5 mg/kg i.v., 0.5 h, read-out: Givinostat brain level), 83 ng/g. Also, the concentration at 1 h came to 75 ng/mL in data set [1] (7.5 mg/kg i.v., 1 h, read-out: Givinostat plasma level) and 44 ng/g in [2] (Swiss CD1, mouse, brain, iv, 7.5 mg/kg i.v., 1 h, read-out: Givinostat brain level). Besides, the concentration at 2 h in data set [1] (7.5 mg/kg i.v., 2 h, read-out: Givinostat plasma level) turned out to be 19 ng/mL; in data set [2] (Swiss CD1, mouse, brain, iv, 7.5 mg/kg i.v., 2 h, read-out: Givinostat brain level) it was 30 ng/g. Also, the concentration at 4 h is 6 ng/mL in data set [1] (7.5 mg/kg i.v., 4 h, read-out: Givinostat plasma level) and 13 ng/g in data set [2] (Swiss CD1, mouse, brain, iv, 7.5 mg/kg i.v., 4 h, read-out: Givinostat brain level). In addition, the concentration at 6 h in [1] (7.5 mg/kg i.v., 6 h, read-out: Givinostat plasma level) turned out to be 4 ng/mL; in data set [2] (Swiss CD1, mouse, brain, iv, 7.5 mg/kg i.v., 6 h, read-out: Givinostat brain level), 7 ng/g. The MRT last in [1] (7.5 mg/kg single i.v., read-out: mean residence time (MRT0-t)) was found to be 0.6 h. In [1] (7.5 mg/kg single i.v., read-out: plasma clearance (CL) (converted)), the clearance was 257 mL/min/kg. In addition, in data set [1] (7.5 mg/kg single i.v., read-out: plasma exposure (AUC0-t)), the AUC(0-t) turned out to be 478 ng·h/mL. In data set [1] (7.5 mg/kg single i.v., read-out: volume of distribution), the Vd worked out at 10.8 L/kg. Further, the half-life in [1] (Givinostat 7.5 mg/kg single i.v., read-out: half-life (t1/2) (converted)) is 1.7 h. Further, in the data set on ABCA1, the ABCA1 expression result is reported as “non-significant trend towards a decrease”. The Kp in data set [2] (Swiss CD1, mouse, brain and plasma, iv, 7.5 mg/kg single i.v., read-out: AUCbrain/AUCplasma ratio) stood at 0.372. This molecule also gave a Cmax in data set [2] (Swiss CD1, mouse, brain, iv, 7.5 mg/kg single i.v.) of about 100 ng/g. In data set [2] (7.5 mg/kg i.v., 24 h), the Givinostat brain level result was “below detection limits”. In addition, the viability at 24 h in data set [3] is at least 100%.

Regarding `Cn1nnc2c(C(N)=O)ncn2c1=O` [TMZ, temozolomide], the IC50 in the data set on T98G and in the data set on U87-MG was 100 to 500 µM throughout.

Usually IC50 stands for the concentration that gives 50% inhibition. As a reminder, the clearance is a measure of how efficiently the substance is removed, as volume per time. One may read the Cmax as the maximum level reached in the sampled fluid or tissue. The term viability denotes a per cent measure of how many cells are alive, often set against a control.
